Values joined by “and” are separate entries in the source; they are usually repeats but may differ in a detail not shown here. Identical values can stand only once.
How the values were obtained:
Type in all cases: cell-based
HFF-1 cells = assay: Cytotoxicity experiment (CCK-8 cell viability); conditions: 24 h, 5 μg/mL HPR, 9 μg/mL retinyl propionate, alone or in combination, individual replicates
Description: 2.1 Experimental content: an effect of 5 μg/mL of HPR and 9 μg/mL of retinyl propionate alone or in combination on the viability of HFF-1 cells.
2.2 Experimental method: the HFF-1 cells were seeded in a 96-well plate (3,000 cells/mL and 100 μL per well) and administrated in a 5 μg/mL HPR group, a 9 μg/mL retinyl propionate group, and a 5 μg/mL HPR+9 μg/mL retinyl propionate group. A blank control was set at the same time. The cell viability after 24 h of the administration treatment was detected using a CCK-8 kit.
2.3 Experimental results: data was input by the Excel, subjected to statistical processing by a Prism (Version 7) software package, and expressed as meantstandard error. Each data was subjected to a one-way analysis of variance and p<0.05 was considered to be statistically different.

Col-IV mRNA = assay: Various anti-aging related mRNA expression experiment (qPCR), Col-IV; conditions: HFF-1 cells, 5 μg/mL HPR, 9 μg/mL retinyl propionate, alone or in combination, individual replicates
Description: (§1) RNA extraction: a cell sample was taken, a supernatant was removed, 1 mL of a TRIZON reagent was added into each well of a 6-well plate, the cells were stood, cracked, and transferred to a 1.5-mL EP tube, 0.2 mL of chloroform was added, and the mixture was shaken, uniformly mixed, stood on ice, and centrifuged at 12,000 rpm/min at 4° C. for 15 min; about 400 μL of an obtained supernatant was taken, isopropanol with the same volume was added, the mixture was lightly shaken, stood on ice at 4° C., and centrifuged at 12,000 rpm/min for 10 min; an obtained supernatant was removed, 1 mL of 75% ethanol was added into an obtained precipitate, an EP tube was shaken to float the precipitate to achieve a washing effect, the obtained product was centrifuged at 7,500 rpm/min at 4° C. for 10 min; an obtained supernatant was removed, a part of ethanol was left, the product was centrifuged at 7,500 rpm/min at 4° C. for 5 min, and residual ethanol was removed from the inner wall of the tube; and an obtained supernatant was removed, the liquid was aspirated, and a certain amount of RNA-free water was added for resuspension and dissolution. 2 μL of the product was analyzed on a SpectraMax iD3 multifunctional microplate reader for detecting the RNA concentration and A260/A280 value.
(§2) cDNA synthesis: the mRNA was subjected to reverse transcription into cDNA by using a HiFiScript cDNA synthesis kit.
(§3) Fluorescence quantification: the expression of the Elastin mRNA in the cell sample was detected by mixing an UltraSYBR Mixture premixed solution and the cDNA, and loading the mixture into a machine.
(§4) 3.1 Experimental content: an effect of 5 μg/mL of HPR and 9 μg/mL of retinyl propionate alone or in combination on expressions of collagen-related mRNAs in HFF-1 cells.
(§5) 3.2 Experimental method: the HFF-1 cells were seeded in a 96-well plate (3,000 cells/mL and […]) and administrated in a 5 μg/mL HPR group, a 9 μg/mL retinyl propionate group, and a 5 μg/mL HPR+9 μg/mL retinyl propionate group. A blank control was set at the same time. Total RNA of the cells was extracted at 24 h, 48 h, and 72 h and the expressions of the collagen-related mRNAs were detected by qPCR. (The specific operation steps referred to section 1.2)
(§6) 3.3 Experimental results: data was input by the Excel, subjected to statistical processing by a Prism (Version 7) software package, and expressed as meantstandard error. Each data was subjected to a one-way analysis of variance and p<0.05 was considered to be statistically different.

CRBPI mRNA = assay: Various anti-aging related mRNA expression experiment (qPCR), CRBPI; conditions: HFF-1 cells, 5 μg/mL HPR, 9 μg/mL retinyl propionate, alone or in combination, individual replicates
Description: as §1, §2, §3, §4, §5, §6

RARB mRNA = assay: Various anti-aging related mRNA expression experiment (qPCR), RARB; conditions: HFF-1 cells, 5 μg/mL HPR, 9 μg/mL retinyl propionate, alone or in combination, individual replicates
Description: as §1, §2, §3, §4, §5, §6

Elastin mRNA = assay: Various anti-aging related mRNA expression experiment (qPCR), Elastin; conditions: HFF-1 cells, 5 μg/mL HPR, 9 μg/mL retinyl propionate, alone or in combination, individual replicates
Description: as §1, §2, §3, §4, §5, §6

Structure (SMILES) | viability of HFF-1 cells (blank control 100) (HFF-1 cells) | Col IV mRNA expression (blank control 1) (Col-IV mRNA; after 24 h) | Col IV mRNA expression (blank control 1) (Col-IV mRNA; after 48 h) | Col IV mRNA expression (blank control 1) (Col-IV mRNA; after 72 h) | CRBPI mRNA expression (blank control 1) (CRBPI mRNA; after 24 h) | CRBPI mRNA expression (blank control 1) (CRBPI mRNA; after 48 h) | CRBPI mRNA expression (blank control 1) (CRBPI mRNA; after 72 h) | RARB mRNA expression (blank control 1) (RARB mRNA; after 24 h) | RARB mRNA expression (blank control 1) (RARB mRNA; after 48 h) | RARB mRNA expression (blank control 1) (RARB mRNA; after 72 h) | Elastin mRNA expression (blank control 1) (Elastin mRNA; after 24 h) | Elastin mRNA expression (blank control 1) (Elastin mRNA; after 48 h) | Elastin mRNA expression (blank control 1) (Elastin mRNA; after 72 h)
CCC(=O)OC/C=C(C)/C=C/C=C(C)/C=C/C1=C(C)CCCC1(C)C [retinyl propionate] | 100.2 and 100.8 and 95.66 | 1 and 1.357 and 1.079 | 1.385 and 1.485 and 1.117 | 1.625 and 1.189 and 0.9794 | 1.58 and 1.866 and 1.042 | 1.275 and 1.647 (2×) | 3.272 and 1.087 and 1.072 | 1.301 and 1.214 and 2.828 | 1.301 and 1.602 and 1.079 | 1.803 and 1.165 and 1.301 | 1.778 and 16.11 and 1.157 | 1.866 and 2.77 and 3.01 | 5.736 and 6.727 and 1.275
CC1=C(/C=C/C(C)=C/C=C/C(C)=C/C(=O)OCC(=O)C(C)(C)C)C(C)(C)CCC1 [HPR, hydroxypinacolone retinoate] | 104.9 and 101.4 and 100.3 | 1.357 and 1.014 and 1.223 | 1.474 and 1.094 and 1.945 | 1.165 and 1.265 and 0.9395 | 3.223 and 1.094 and 1.597 | 1.094 and 1.488 and 1.58 | 4.017 and 1.79 and 3.295 | 1.079 and 3.732 and 5.063 | 1.659 and 1.189 and 3.605 | 2.395 and 1.042 and 4.925 | 1.778 and 14.52 and 1.029 | 2.928 and 2.809 and 3.317 | 1.963 and 3.52 and 4.112
